This assay concerns the target hFP receptor (Homo sapiens (Human), UniProt P43088). Description: Radioligand Binding Assay. The conditions noted are these: competition with 5 nM (3H) PGF2α on hFP membranes from transfected COS-7 cells; read-out: IC50 the PGF.

Sequence of hFP receptor (P43088 whole entry): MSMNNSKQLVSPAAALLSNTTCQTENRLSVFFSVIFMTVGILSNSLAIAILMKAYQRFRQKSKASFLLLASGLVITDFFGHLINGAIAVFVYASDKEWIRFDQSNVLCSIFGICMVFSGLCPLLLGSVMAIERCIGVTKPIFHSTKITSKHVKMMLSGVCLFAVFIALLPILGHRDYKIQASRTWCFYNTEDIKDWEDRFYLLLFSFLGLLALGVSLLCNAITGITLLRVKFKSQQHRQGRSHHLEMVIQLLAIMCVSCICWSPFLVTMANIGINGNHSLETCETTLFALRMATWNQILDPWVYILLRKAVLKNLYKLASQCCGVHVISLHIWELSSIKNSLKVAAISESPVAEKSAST
Procedure: IC50 of a prostaglandin can be determined relative to PGF2α using the Radioligand Binding Assay.
In this assay, COS-7 cells are transiently transfected with the hFP recombinant plasmid using LipofectAMINE Reagent. Forty-eight hours later, the transfected cells are washed with Hank's Balanced Salt Solution (HBSS, without CaCl2, MgCl2, MgSO4, or phenol red). The cells are detached with versene, and HBSS is added. The mixture is centrifuged at 200 g for 10 minutes, at 4° C. to pellet the cells. The pellet is resuspended in Phosphate-Buffered Saline-EDTA buffer (PBS; 1 mM EDTA; pH 7.4; 4° C.). […] The mixture is centrifuged at 1000 g for 10 minutes at 4° C. The supernatant is centrifuged at 100,000 g for 60 minutes at 4° C. The pellet is resuspended to 1 mg protein/mL TME buffer (50 mM Tris; 10 mM MgCl2; 0.1 mM EDTA; pH 6.0; 4° C.) based on protein levels measured using the Pierce BCA Protein Assay kit. […] The membrane preparations are then stored at −80° C., until thawed for assay use.
The receptor competition binding assays are developed in a 96 well format. Each well contains 100 g of hFP membrane, 5 nM (3 H) PGF2α, and the various competing compounds in a total volume of 200 L. The plates are incubated at 23° C. for 1 hour. […] The plates are read on a Packard TOPCOUNT® Microplate Scintillation Counter (also available from Packard Instrument Co., Inc.)

The term IC50 denotes the concentration that gives 50% inhibition. As for `CCCCCC(O)/C=C/[C@@H]1[C@@H](C/C=C\CCC[PH](=O)O)[C@@H](O)C[C@H]1O` (stereo partly shown) [Example 1-2], the half-inhibitory concentration (IC50) was 0.114 µM.

The record behind these values is US9675539B2, “Cosmetic and pharmaceutical compositions and methods using 2-decarboxy-2-phosphinico derivatives” (Duke University, priority 2000, dated 2017).
